The values below come from patent publication US11091511B2, “Panaxdiol-type ginsenoside derivative, preparation method therefor and use thereof” (ARMY MEDICAL UNIVERSITY, priority 2016, dated 2021).

Molecules are shown by their SMILES. Marks after values point to notes of the source that are not given here.

Data set [1] concerns RAW264.7 cell-derived foam cells. The data set can be described thus: Formation of RAW264.7 cell-derived foam cells (ox-LDL, oil red O, absorbance 490 nm). Type of data set: cell-based, mouse. The note with it: 48 hours, model group = 100%, x ± s, n = 3. The procedure: The effects of the compounds prepared in Examples 1-30 of the present invention on the formation of RAW264.7 cell-derived foam cells, the specific steps are as follows:
1. Cell culture and foam cell model establishment:
RAW264.7 cells were cultured in DMEM culture medium with high glucose level (GIBCO) to a cell concentration of 1×10^6, planted in a 6-well plate, and 60 mg/L of ox-LDL (oxidized modified low-density lipoprotein, Peking Union Medical College) was added, foam cells were obtained after 48 hours of incubation.
2. Grouping and index detection:
The obtained foam cells were divided into 61 groups, 3 well plates were included in one group. After the treatment by adding the drugs (100 μL/well) for 48 hours, the medium was discarded, and after oil red 0 staining, the excess amount of oil red 0 was washed away. The cells were dissolved in isopropanol and the absorbance values were measured at 490 nm. The OD value of the model group was 100%, and the OD value of each group corrected by the number of cells was compared with the model group to obtain the ratio of intracellular lipid content. The larger the value, the more intracellular lipids, the higher the degree of formation of foam cells.
Normal saline control group: normal saline
Low dose groups of the compounds prepared in Examples 1-30 of the present invention:
10 μmol/L (solvents were normal saline).
High dose groups of compounds prepared in Examples 1-30 of the present invention: 30 μmol/L (solvents were normal saline).
Data were expressed as x±s, and SPSS 10.0 line single-factor analysis of variance was performed amoung groups, a significant difference was indicated when p<0.05.

The test system of data set [2] is TNF-α. Put plainly: Local TNF-α level in the arteries of apoE-/- mice (Millipore liquid phase chip). It is filed as in vivo, mouse. The note with it: high-fat diet, intragastric 15 weeks, compounds 30 mg/(kg·d), simvastatin 10 mg/(kg·d), x ± s, n = 5, saline control 25.58 ± 6.44. The text has this:
(§1) The effects of the compounds prepared in Examples 1-30 of the present invention on the percentages of areas of atherosclerotic plaque formation to the area of the entire artery in apoE−/− mice with a high-fat diet and the levels of low-density lipoprotein cholesterol and the levels of high-density lipoprotein, the specific steps are as follows: 1. animals: 160 ten-week-old, healthy and clean-grade apoE−/− mice (purchased from Peking University Experimental Animal Center), males, weight: 22-25 g, were housed in separate cages in a sterile laminar feeding room and fed freely. The mice were fed by a high-fat diet (conventional feed+0.15% cholesterol+21% lard) for 25 weeks, the room temperature was kept at 24° C., relative humidity: 50%, illumination time 7:30-19:30. 2. Grouping, administration method: after 10 weeks of feeding, the animals were divided into the following 32 groups (n=5) by weight in a balanced and random manner, and killed 15 weeks after administration. Normal saline control group: normal saline, intragastric administration. Positive control group: simvastatin 10 mg/(kg·d), intragastric administration. The compound groups prepared in Examples 1-30 of the present invention (30 groups in total): each was intragastric administered 30 mg/(kg·d). (3) Determination of TNF-α level: Millipore liquid phase chip method was used for the determination (Mcytomag-70K-3, Mouse Cytokine/Chemokine Magnetic Bead Panel). Data were expressed as x±s, and SPSS 10.0 line single-factor analysis of variance was performed among groups, a significant difference was indicated when p<0.05.

Data set [3] deals with apoE−/− mice. The data set can be described thus: Blood lipids (LDL-C, HDL-C) in apoE-/- mice on high-fat diet. Type of data set: in vivo, mouse. The following applies: apoE-/- mice serum, intragastric 15 weeks, compounds 30 mg/(kg·d), simvastatin 10 mg/(kg·d), x ± s; for HDL-C: n = 5, saline control 3.74 ± 0.62; for LDL-C: n = 5, saline control 7.33 ± 1.03. The text has this: The effects of the compounds prepared in Examples 1-30 of the present invention on the percentages of areas of atherosclerotic plaque formation to the area of the entire artery in apoE−/− mice with a high-fat diet and the levels of low-density lipoprotein cholesterol and the levels of high-density lipoprotein, the specific steps are as follows:
1. animals: 160 ten-week-old, healthy and clean-grade apoE−/− mice (purchased from Peking University Experimental Animal Center), males, weight: 22-25 g, were housed in separate cages in a sterile laminar feeding room and fed freely. The mice were fed by a high-fat diet (conventional feed+0.15% cholesterol+21% lard) for 25 weeks, the room temperature was kept at 24° C., relative humidity: 50%, illumination time 7:30-19:30.
2. Grouping, administration method:
after 10 weeks of feeding, the animals were divided into the following 32 groups (n=5) by weight in a balanced and random manner, and killed 15 weeks after administration.
Normal saline control group: normal saline, intragastric administration.
Positive control group: simvastatin 10 mg/(kg·d), intragastric administration.
The compound groups prepared in Examples 1-30 of the present invention (30 groups in total): each was intragastric administered 30 mg/(kg·d).
(2) Determination of the levels of total cholesterol (TC), low-density cholesterol lipoprotein (LDL-C) and high-density lipoprotein cholesterol (HDL-C): using ROCHE 7060 automatic biochemical analyzer for the determination.
Data were expressed as x±s, and SPSS 10.0 line single-factor analysis of variance was performed among groups, a significant difference was indicated when p<0.05.

For data set [4], the system named is RAW264.7 cells. The data set can be described thus: RAW264.7 cell survival rate by CCK8 method. It is filed as cell-based, mouse. The note with it: compound 10 prnol/L, 0.1% DMSO, CCK8, x ± s, n = 3, normal saline control = 1. The protocol:
In order to further verify the toxicities of the compounds prepared in Examples 1-30 of the present invention, the mouse macrophage cell line RAW264.7 was cultured, and the compounds prepared in Examples 1-30 of the invention were prepared to a concentration of […] using culture medium, wherein the solvent was normal saline, the co-solvent was dimethyl sulfoxide (DMSO, the final concentratoin was 0.1%), and a 0.1% DMSO saline control group was provided. The cell survival rate was determined by CCK8 method. The data were expressed as x±s. SPSS 10.0 line single-factor analysis of variance was performed among groups. The difference was significant when p<0.05.

The subject of data set [5] is apoE−/− mice. The data set can be described thus: Atherosclerotic plaque area to total aortic area in apoE-/- mice on high-fat diet (Sudan IV staining). The note with it: intragastric 15 weeks, compounds 30 mg/(kg·d), simvastatin 10 mg/(kg·d), x ± s, n = 5, saline control 14.67 ± 3.58. Type of data set: in vivo, mouse.
Source text: as §1, with “(1) Analysis” for “(3) Determination”, “the area of atherosclerotic plaque and its percentage to total area: after the animals were killed, the aortas were separated, from the roots of the aortas to the terminal bifurcations of the abdominal aortas. After formalin fixation, the aortas were stained with Sudan IV, the red stained parts were the areas of atherosclerotic lesions. The percentage of the area of the lesion area to total area” for “TNF-α level: Millipore liquid phase chip method”, “calculated using Image Pro Plus 5.0 software.” for “used for the determination (Mcytomag-70K-3, Mouse Cytokine/Chemokine Magnetic Bead Panel).”

As for `COC(=O)[C@@H](Cc1ccc(O)cc1)NCCC[C@](C)(O[C@H]1O[C@H](COC(C)=O)[C@@H](OC(C)=O)[C@H](OC(C)=O)[C@H]1OC(C)=O)C1CC[C@]2(C)[C@@H]1C(OC(C)=O)CC1[C@@]3(C)CC[C@H](OC(C)=O)C(C)(C)C3CC[C@]12C` (stereo partly shown) [Compound 13], the “Foam cell formation (%)” value in data set [1] (dose 10 μmol/L) is reported as 71 ± 14 ^a %. Moreover, in data set [1] (dose 30 μmol/L), the “Foam cell formation (%)” value is on record as 47 ± 23 ^a %. Besides, the “TNF-α level (ng/g)” value in data set [2] is on record as 15.65 ± 6.74 ^a ng/g. Also, in data set [3], the HDL-C was 5.29 ± 1.18 ^a mmol/L and the LDL-C is 5.07 ± 0.99 ^a mmol/L. In addition, in data set [4], the “Cell Survival Rate” value is recorded as 0.85 ± 0.12. Also, in data set [5], the “Plaque area/total aorta area (%)” value is on record as 9.44 ± 3.24 ^a %.
For the compound `CCOC(=O)C(NCCCCC[C@](C)(OC(C)=O)C1CC[C@]2(C)[C@@H]1C(OC(C)=O)CC1[C@@]3(C)CC[C@H](OC(C)=O)C(C)(C)C3CC[C@]12C)C(C)OCC` (stereo partly shown) [Compound 26], the “Foam cell formation (%)” value in data set [1] (dose 10 μmol/L) amounted to 83 ± 21%. In addition, the “Foam cell formation (%)” value in data set [1] (dose 30 μmol/L) was 72 ± 18 ^a %. Also, in data set [2], the “TNF-α level (ng/g)” value was 16.02 ± 3.11 ^a ng/g. For the same compound, in data set [3], the HDL-C was 4.45 ± 0.62 ^a mmol/L and the LDL-C is listed as 6.28 ± 0.84 mmol/L. In addition, the “Cell Survival Rate” value in data set [4] is on record as 0.94 ± 0.05. For the same compound, the “Plaque area/total aorta area (%)” value in data set [5] is 9.78 ± 3.17 ^a %.
Turning to `COC(=O)[C@H](CO)NCCC[C@](C)(O[C@H]1O[C@H](COC(C)=O)[C@@H](OC(C)=O)[C@H](OC(C)=O)[C@H]1OC(C)=O)C1CC[C@]2(C)[C@@H]1C(OC(C)=O)CC1[C@@]3(C)CC[C@H](OC(C)=O)C(C)(C)C3CC[C@]12C` (stereo partly shown) [Compound 7], the “Foam cell formation (%)” value is 83 ± 13% in data set [1] (dose 10 μmol/L) and 71 ± 13 ^a % in data set [1] (dose 30 μmol/L). Moreover, the “TNF-α level (ng/g)” value in data set [2] is 17.77 ± 4.63 ^a ng/g. In data set [3], the HDL-C was 4.52 ± 0.46 ^a mmol/L. Moreover, the LDL-C in data set [3] is on record as 5.50 ± 1.82 ^a mmol/L. Moreover, the “Cell Survival Rate” value in data set [4] is recorded as 0.86 ± 0.01. Also, the “Plaque area/total aorta area (%)” value in data set [5] is recorded as 11.02 ± 2.71 ^a %.
For `CCC(C)(C)C(=O)O[C@H]1C[C@@H](C)C=C2C=C[C@H](C)[C@H](CC[C@@H]3C[C@@H](O)CC(=O)O3)[C@H]21` [Simvastatin, simvastatin, reference compound], in data set [2], the “TNF-α level (ng/g)” value is on record as 14.84 ± 3.22 ^a ng/g. Moreover, in data set [3], the HDL-C was 3.69 ± 0.72 ^a mmol/L and the LDL-C is 2.75 ± 1.89 ^a mmol/L. Also, in data set [5], the “Plaque area/total aorta area (%)” value was 7.95 ± 2.03 ^a %.
For the compound `COC(=O)[C@H](Cc1c[nH]c2ccccc12)NCCC[C@](C)(OC(C)=O)C1CC[C@]2(C)[C@@H]1C(OC(C)=O)CC1[C@@]3(C)CC[C@H](OC(C)=O)C(C)(C)C3CC[C@]12C` (stereo partly shown) [Compound 30], the “Foam cell formation (%)” value in data set [1] (dose 10 μmol/L) is given as 78 ± 12 ^a %. The “Foam cell formation (%)” value in data set [1] (dose 30 μmol/L) was 64 ± 13 ^a %. Further, in data set [2], the “TNF-α level (ng/g)” value is 16.11 ± 4.19 ^a ng/g. Also, in data set [3], the HDL-C is reported as 4.42 ± 0.57 ^a mmol/L and the LDL-C amounted to 6.37 ± 0.75 mmol/L. The “Cell Survival Rate” value in data set [4] amounted to 0.95 ± 0.09. Besides, the “Plaque area/total aorta area (%)” value in data set [5] is 9.99 ± 3.68 ^a %.
Take `CCOC(=O)C(NCCC[C@](C)(O[C@H]1O[C@H](COC(C)=O)[C@@H](OC(C)=O)[C@H](OC(C)=O)[C@H]1OC(C)=O)C1CC[C@]2(C)[C@@H]1C(OC(C)=O)CC1[C@@]3(C)CC[C@H](OC(C)=O)C(C)(C)C3CC[C@]12C)C(=O)OCC` (stereo partly shown) [Compound 11]: the “Foam cell formation (%)” value in data set [1] (dose 10 μmol/L) is on record as 72 ± 14 ^a %. Besides, the “Foam cell formation (%)” value in data set [1] (dose 30 μmol/L) was 65 ± 15 ^a %. Also, in data set [2], the “TNF-α level (ng/g)” value is listed as 12.33 ± 5.81 ^a ng/g. In addition, in data set [3], the HDL-C is 4.93 ± 0.58 ^a mmol/L and the LDL-C is recorded as 6.59 ± 1.56 mmol/L. Moreover, the “Cell Survival Rate” value in data set [4] came to 0.84 ± 0.12. In data set [5], the “Plaque area/total aorta area (%)” value was 9.68 ± 3.52 ^a %.
In the case of `COC(=O)CNCCC[C@](C)(O[C@H]1O[C@H](COC(C)=O)[C@@H](OC(C)=O)[C@H](OC(C)=O)[C@H]1OC(C)=O)C1CC[C@]2(C)[C@@H]1C(OC(C)=O)CC1[C@@]3(C)CC[C@H](OC(C)=O)C(C)(C)C3CC[C@]12C` (stereo partly shown) [Compound 9], the “Foam cell formation (%)” value in data set [1] (dose 10 μmol/L) was 79 ± 23%; in data set [1] (dose 30 μmol/L), 65 ± 17 ^a %. For the same compound, the “TNF-α level (ng/g)” value in data set [2] is listed as 12.85 ± 4.17 ^a ng/g. Also, the HDL-C in data set [3] is on record as 4.41 ± 0.67 ^a mmol/L. This compound also registered an LDL-C in data set [3] of 6.84 ± 0.85 mmol/L. Moreover, the “Cell Survival Rate” value in data set [4] is recorded as 0.85 ± 0.07. Moreover, the “Plaque area/total aorta area (%)” value in data set [5] is given as 10.55 ± 2.19 ^a %.
